Laboratory results reported in patent publication US20010034365A1, “Halogen substituted carbamate compounds from 2-phenyl-1,2-ethanediol” (priority 1996, published 2001).

These compounds were tested on mice (CF-1 strain) (assay: Maximal ElectroShock (MES) test for anticonvulsants). Settings: dosed orally, Hour 1, elimination of hindlimb tonic extension.
Format: in vivo
Experimental: The therapeutic use of the compounds claimed in the present invention as anticonvulsants has been proven by the “Maximal ElectroShock (MES)” test, which is a well-established pharmacological screening method for anticonvulsants against partial seizures, and the results are presented in Table 1. The procedure employed in the MES test for anticonvulsants follows. The compound dosing, solutions were prepared in saline, and the subject, namely, mice (CF-1 strain), were dosed orally. After the designated number of hours, maximal electroshock was induced in mice via corneal electrodes using IITC Life Science model 11A Shocker at 50 mA-60 Hz for […]. Upon inducing, maximal electroshock, the elimination of hindlimb tonic extension was considered as providing evidence of the protection by an anticonvulsant. Median efficacy dose (ED50) levels were determined using three different dose levels with at least 6 mice in each group.

Compound	ED50
(S)-(2-(2-Chlorophenyl)-2-carbamoyloxyethyl)oxocarboxamide [Entry 7]	22.0 mg/kg
(R)-(2-(2-Chlorophenyl)-2-hydroxyethyl)oxocarboxamide [Entry 3]	50.0 mg/kg
(R)-(2-(2-Chlorophenyl)-2-carbamoyloxyethyl)oxocarboxamide [Entry 6]	16.0 mg/kg
NC(=O)OCC(OC(N)=O)c1ccc(Cl)cc1 (stereo not drawn) [Entry 8, (DL)-(2-(4-Chlorophenyl)-2-carbamoyloxyethyl)oxocarboxamide]	29.1 mg/kg
NC(=O)OCC(OC(N)=O)c1c(Cl)cccc1Cl (stereo not drawn) [Entry 11, (DL)-(2-(2,6-dichlorophenyl)-2-carbamoyloxyethyl)-oxocarboxamide]	7.4 mg/kg
(R)-(2-(4-Chlorophenyl)-2-carbamoyloxyethyl)oxocarboxamide [Entry 9]	26.2 mg/kg
NC(=O)OCC(O)c1ccccc1Cl (stereo not drawn) [Entry 1, (DL)-(2-(2-chlorophenyl)-2-hydroxyethyl)oxocarboxamide]	33.7 mg/kg
NC(=O)OCC(OC(N)=O)c1ccccc1Cl (stereo not drawn) [Entry 5, (DL)-(2-(2-Chlorophenyl)-2-carbamoyloxyethyl)oxocarboxamide]	25 mg/kg
(R)-(2-(2,6-Dichlorophenyl)-carbamoyloxyethyl)oxocarboxamide [Entry 12]	10.7 mg/kg
(S)-(2-(2-chlorophenyl)-2-hydroxyethyl)oxocarboxamide [Entry 2]	13.0 mg/kg

Same assay, conditions: dosed orally, Hour 4, elimination of hindlimb tonic extension

Compound	ED50
O=C(Nc1ccccc1)OC[C@H](OC(=O)Nc1ccccc1)c1ccccc1Cl [Entry 16, (R)-N-Phenyl(2-(2-chlorophenyl)-2-N-phenylcarbamoyloxyethyl)-oxocarboxamide]	>20 mg/kg
O=C(NCc1ccccc1)OC[C@H](OC(=O)NCc1ccccc1)c1ccccc1Cl [Entry 17, (R)-N-Benzyl(2-(2-chlorophenyl)-2-N-benzylcarbamoyloxyethyl)-oxocarboxamide]	>20 mg/kg
NC(=O)OC[C@H](OC(N)=O)c1ccccc1Cl [Entry 13, (R)-(2-(2-Chlorophenyl)-2-N-carbamoyloxyethyl)oxocarboxamide]	8.9 mg/kg
(S)-(2-(4-Chlorophenyl)-2-carbamoyloxyethyl)oxocarboxamide [Entry 10]	21.5 mg/kg
CNC(=O)OC[C@H](OC(=O)NC)c1ccccc1Cl [Entry 14]	>20 mg/kg

The compounds below were run on mice (CF-1 strain) in the same assay as above. Settings: ip, Hour 1, elimination of hindlimb tonic extension.
Format: in vivo

Compound	ED50 (mg/Kg)
CC(C)NC(=O)OC[C@H](OC(=O)NC(C)C)c1ccccc1Cl [Entry 15]	≈10 (ip) mg/Kg
